Measured values taken from ChEMBL document CHEMBL1151012, “Synthesis and anti-pseudomonal activity of new 2-isocephems with a dihydroxypyridone moiety at C-7” (1994).
Values after ≈ are worked out from the molar mass of the structure shown.

Columns and labels:
Klebsiella pneumoniae = experiment: In vitro antibacterial activity against Klebsiella pneumoniae NCTC-9632 bacteria was determined; type: functional
Pseudomonas aeruginosa [1] = experiment: Antibacterial activity against clinically isolated Pseudomonas aeruginosa 67
Pseudomonas aeruginosa [2] = experiment: In vitro antibacterial activity against Pseudomonas aeruginosa ATCC 10145 bacteria was determined; type: functional
Pseudomonas aeruginosa [3] = experiment: In vitro antibacterial activity against Pseudomonas aeruginosa NCTC-10490 bacteria was determined; type: functional
Mus musculus [4] = species: Mus musculus; experiment: (§1) Protective effect on systemic infection in mice caused by clinically isolated Pseudomonas aeruginosa 58; type: functional
Mus musculus [5] = species: Mus musculus; experiment: Protective effect on systemic infection in mice caused by clinically isolated Pseudomonas aeruginosa 67; type: functional
Escherichia coli = experiment: In vitro antibacterial activity against Escherichia coli NIH JC-2 bacteria was determined; type: functional
Pseudomonas aeruginosa [6] = experiment: In vitro antibacterial activity against IPM resistant Pseudomonas aeruginosa 47 was determined; type: functional
Pseudomonas aeruginosa [7] = experiment: In vitro antibacterial activity against AZT resistant Pseudomonas aeruginosa 56 was determined; type: functional
Pseudomonas aeruginosa [8] = experiment: In vitro antibacterial activity against Pseudomonas aeruginosa 69 was determined; type: functional
Pseudomonas aeruginosa [9] = experiment: In vitro antibacterial activity against Pseudomonas aeruginosa 56 was determined; type: functional
Pseudomonas aeruginosa [10] = experiment: In vitro antibacterial activity against CAZ resistant Pseudomonas aeruginosa 56 was determined; type: functional
Pseudomonas aeruginosa [11] = experiment: In vitro antibacterial activity against AZT resistant Pseudomonas aeruginosa 47 was determined; type: functional
Pseudomonas aeruginosa [12] = experiment: In vitro antibacterial activity against CAZ resistant Pseudomonas aeruginosa 69 was determined; type: functional
Pseudomonas aeruginosa [13] = experiment: as §1; type: functional
Pseudomonas aeruginosa [14] = experiment: In vitro antibacterial activity against AZT resistant Pseudomonas aeruginosa 69 was determined; type: functional
Pseudomonas aeruginosa [15] = experiment: In vitro antibacterial activity against Pseudomonas aeruginosa 59 was determined; type: functional
Pseudomonas aeruginosa [16] = experiment: In vitro antibacterial activity against IPM resistant Pseudomonas aeruginosa 59 was determined; type: functional
Pseudomonas aeruginosa [17] = experiment: In vitro antibacterial activity against CAZ resistant Pseudomonas aeruginosa 47 was determined; type: functional
Pseudomonas aeruginosa [18] = experiment: In vitro antibacterial activity against CAZ resistant Pseudomonas aeruginosa 59 was determined; type: functional
Pseudomonas aeruginosa [19] = experiment: In vitro antibacterial activity against AZT resistant Pseudomonas aeruginosa 59 was determined; type: functional
Pseudomonas aeruginosa [20] = experiment: In vitro antibacterial activity against IPM resistant Pseudomonas aeruginosa 69 was determined; type: functional
Pseudomonas aeruginosa [21] = experiment: In vitro antibacterial activity against Pseudomonas aeruginosa 47 was determined; type: functional
Pseudomonas aeruginosa [22] = experiment: In vitro antibacterial activity against IPM resistant Pseudomonas aeruginosa 56 was determined; type: functional

Q: Which MIC (Klebsiella pneumoniae) does the source give for `CC(C)(O/N=C(\C(=O)N[C@@H]1C(=O)N2C(C(=O)[O-])=C(C[n+]3ccccc3)CS[C@H]12)c1csc(N)n1)C(=O)O` [CEFTAZIDIME] here?
A: 0.05 µg/mL (≈ 0.0915 µM)

Q: And the MIC (Pseudomonas aeruginosa [1])?
A: 1.56 µg/mL (≈ 2.85 µM)

Q: And the MIC (Pseudomonas aeruginosa [2])?
A: 1.56 µg/mL (≈ 2.85 µM)

Q: What about the MIC (Pseudomonas aeruginosa [3]) of the same molecule?
A: 1.56 µg/mL (≈ 2.85 µM)

Q: What about the ED50 (Mus musculus [4]) of the same molecule?
A: 31.7 mg/kg

Q: What about the MIC (Mus musculus [4]) of the same molecule?
A: 3.13 µg/mL (≈ 5.73 µM)

Q: What about the ED50 (Mus musculus [5]) of the same molecule?
A: > 100 mg/kg

Q: And the MIC (Escherichia coli)?
A: 0.39 µg/mL (≈ 0.714 µM)

Q: With `Cc1nc(SCC2=C(C(=O)O)N3C(=O)[C@@H](NC(=O)/C(=N\OCc4cc(=O)c(O)cn4O)c4csc(N)n4)[C@H]3CS2)sc1CC(=O)O` as the molecule, how does the MIC (Pseudomonas aeruginosa [6]) read?
A: 25 µg/mL (≈ 35.2 µM)

Q: What about the MIC (Pseudomonas aeruginosa [7]) of the same molecule?
A: 50 µg/mL (≈ 70.4 µM)

Q: And the MIC (Pseudomonas aeruginosa [8])?
A: 3.13 µg/mL (≈ 4.41 µM)

Q: What about the MIC (Pseudomonas aeruginosa [9]) of the same molecule?
A: 1.56 µg/mL (≈ 2.2 µM)

Q: What about the MIC (Klebsiella pneumoniae) of the same molecule?
A: 0.05 µg/mL (≈ 0.0704 µM)

Q: What about the MIC (Pseudomonas aeruginosa [1]) of the same molecule?
A: 0.1 µg/mL (≈ 0.141 µM)

Q: What about the MIC (Pseudomonas aeruginosa [2]) of the same molecule?
A: 0.05 µg/mL (≈ 0.0704 µM)

Q: And the MIC (Pseudomonas aeruginosa [10])?
A: 12.5 µg/mL (≈ 17.6 µM)

Q: And the MIC (Pseudomonas aeruginosa [3])?
A: ≤ 0.025 µg/mL

Q: And the MIC (Pseudomonas aeruginosa [11])?
A: 25 µg/mL (≈ 35.2 µM)

Q: What about the MIC (Pseudomonas aeruginosa [12]) of the same molecule?
A: 50 µg/mL (≈ 70.4 µM)

Q: And the MIC (Pseudomonas aeruginosa [13])?
A: 0.05 µg/mL (≈ 0.0704 µM)

Q: And the ED50 (Mus musculus [4])?
A: 3.2 mg/kg

Q: And the MIC (Pseudomonas aeruginosa [14])?
A: 25 µg/mL (≈ 35.2 µM)

Q: What about the MIC (Pseudomonas aeruginosa [15]) of the same molecule?
A: 1.56 µg/mL (≈ 2.2 µM)

Q: And the ED50 (Mus musculus [5])?
A: 21.8 mg/kg

Q: What about the MIC (Escherichia coli) of the same molecule?
A: 0.1 µg/mL (≈ 0.141 µM)

Q: And the MIC (Pseudomonas aeruginosa [16])?
A: 50 µg/mL (≈ 70.4 µM)

Q: What about the MIC (Pseudomonas aeruginosa [17]) of the same molecule?
A: 50 µg/mL (≈ 70.4 µM)

Q: What about the MIC (Pseudomonas aeruginosa [18]) of the same molecule?
A: 50 µg/mL (≈ 70.4 µM)

Q: What about the MIC (Pseudomonas aeruginosa [19]) of the same molecule?
A: 25 µg/mL (≈ 35.2 µM)

Q: And the MIC (Pseudomonas aeruginosa [20])?
A: 50 µg/mL (≈ 70.4 µM)

Q: And the MIC (Pseudomonas aeruginosa [21])?
A: 1.56 µg/mL (≈ 2.2 µM)

Q: And the MIC (Pseudomonas aeruginosa [22])?
A: 25 µg/mL (≈ 35.2 µM)

Q: `Nc1nc(/C(=N/OCc2cc(=O)c(O)cn2O)C(=O)N[C@@H]2C(=O)N3C(C(=O)O)=C(CSc4nnnn4CC(=O)O)SC[C@H]23)cs1` (stereo in doubt) was tested. Which MIC (Klebsiella pneumoniae) did it give?
A: ≤ 0.025 µg/mL

Q: And the MIC (Pseudomonas aeruginosa [2])?
A: ≤ 0.025 µg/mL

Q: What about the MIC (Pseudomonas aeruginosa [3]) of the same molecule?
A: ≤ 0.025 µg/mL

Q: And the MIC (Escherichia coli)?
A: 0.05 µg/mL (≈ 0.0735 µM)

Q: How did the MIC (Klebsiella pneumoniae) turn out when `Nc1nc(/C(=N/OCc2cc(=O)c(O)cn2O)C(=O)N[C@@H]2C(=O)N3C(C(=O)O)=C(CSc4cnns4)SC[C@H]23)cs1` (stereo in doubt) was run?
A: 0.1 µg/mL (≈ 0.157 µM)

Q: And the MIC (Pseudomonas aeruginosa [2])?
A: 0.39 µg/mL (≈ 0.611 µM)

Q: And the MIC (Pseudomonas aeruginosa [3])?
A: ≤ 0.025 µg/mL

Q: What about the MIC (Escherichia coli) of the same molecule?
A: 0.2 µg/mL (≈ 0.313 µM)

Q: What does the source list for `Nc1nc(/C(=N/OCc2cc(=O)c(O)cn2O)C(=O)N[C@@H]2C(=O)N3C(C(=O)O)=C(CSc4nncs4)SC[C@H]23)cs1` (stereo in doubt)?
A: MIC (Klebsiella pneumoniae): ≤ 0.025 µg/mL; MIC (Pseudomonas aeruginosa [2]): 0.1 µg/mL (≈ 0.157 µM); MIC (Pseudomonas aeruginosa [3]): ≤ 0.025 µg/mL; MIC (Escherichia coli): 0.2 µg/mL (≈ 0.313 µM)
